Source: the supplement of paper PMC8967900

Key:
Assay in all cases: selective drug sensitivity score (sDSS, relative to normal bone marrow) (sDSS (score)); higher = more potent and effective on the cell line relative to normal bone marrow cells
Details in all cases: 72 h
ALL-PO = tested on: ALL-PO
CCRF-CEM = tested on: CCRF-CEM
CCRF-HSB2 = tested on: CCRF-HSB2
COG-LL-317 = tested on: COG-LL-317
COG-LL-332h = tested on: COG-LL-332h
COG-LL-394h = tested on: COG-LL-394h
COG-LL-402h = tested on: COG-LL-402h
HAL-01 = tested on: HAL-01
KASUMI-10 = tested on: KASUMI-10
KASUMI-9 = tested on: KASUMI-9
KOPN-8 = tested on: KOPN-8
MHH-CALL-4 = tested on: MHH-CALL-4
MN-60 = tested on: MN-60
MOLT-14 = tested on: MOLT-14
MOLT-4 = tested on: MOLT-4
NALM-6 = tested on: NALM-6
P12-ICHIKAWA = tested on: P12-ICHIKAWA
PEER = tested on: PEER
RCH-ACV = tested on: RCH-ACV
RPMI-8402 = tested on: RPMI-8402
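Further: ALL cell lines in 384-well plates, five doses spanning 10,000-fold, each plate scaled between vehicle and 100 µmol/L benzalkonium chloride controls, sDSS an adapted area-under-curve metric.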

SMILES	selective drug sensitivity score (ALL-PO)	selective drug sensitivity score (CCRF-CEM)	selective drug sensitivity score (CCRF-HSB2)	selective drug sensitivity score (COG-LL-317)	selective drug sensitivity score (COG-LL-332h)	selective drug sensitivity score (COG-LL-394h)	selective drug sensitivity score (COG-LL-402h)	selective drug sensitivity score (HAL-01)	selective drug sensitivity score (KASUMI-10)	selective drug sensitivity score (KASUMI-9)	selective drug sensitivity score (KOPN-8)	selective drug sensitivity score (MHH-CALL-4)	selective drug sensitivity score (MN-60)	selective drug sensitivity score (MOLT-14)	selective drug sensitivity score (MOLT-4)	selective drug sensitivity score (NALM-6)	selective drug sensitivity score (P12-ICHIKAWA)	selective drug sensitivity score (PEER)	selective drug sensitivity score (RCH-ACV)	selective drug sensitivity score (RPMI-8402)
CC(C)Oc1ccc(-c2nn([C@@H](C)c3oc4ccc(F)cc4c(=O)c3-c3cccc(F)c3)c3ncnc(N)c23)cc1F [TGR-1202] (top concentration 2500 nM)	3.84	-1.16	-2.06	-2.56	-1.56	-1.46	-1.96	3.04	-2.56	1.44	4.54	-0.06	-2.56	-2.56	-2.56	-1.16	-2.56	-1.86	9.14	-2.06
CN(C(=O)c1ccc(F)cc1C(F)(F)F)C1CCN(c2nnc(-c3ccnn3C)c3ccccc23)CC1 [Taladegib] (top concentration 10000 nM)	-0.52	-0.82	-0.92	-1.12	1.08	2.08	-1.12	2.78	-1.12	-1.12	6.68	-1.12	-1.12	-1.12	-0.12	2.68	-0.22	1.88	-0.52	2.38
COc1cc(Nc2ncc(F)c(Nc3ccc4c(n3)NC(=O)C(C)(C)O4)n2)cc(OC)c1OC [Tamatinib] (top concentration 10000 nM)	9.98	-5.42	4.78	-5.42	-0.22	-5.42	-1.22	-2.92	8.58	2.68	-2.12	-4.62	-5.42	-4.62	-5.42	-5.42	-5.02	-5.42	14	0.68
Nc1cc(F)ccc1NC(=O)c1ccc(CNC(=O)/C=C/c2cccnc2)cc1 [Tucidinostat] (top concentration 10000 nM)	2.94	2.44	2.14	2.74	-2.76	-3.86	5.34	-2.06	3.04	7.24	12.4	9.94	1.54	3.94	-0.76	-0.36	4.04	5.44	11.1	2.94
CN[C@@H]1C[C@H]2O[C@@](C)([C@@H]1OC)n1c3ccccc3c3c4c(c5c6ccccc6n2c5c31)C(=O)N[C@H]4O [UCN-01] (top concentration 10000 nM)	8.64	6.04	9.34	11.8	1.44	-1.46	8.94	2.94	6.94	9.34	10.6	8.14	0.94	6.14	3.74	4.94	5.94	-0.66	18	5.24
CC(C)Nc1cc(-c2c[nH]c(C(=O)N[C@H](CO)c3cccc(Cl)c3)c2)c(Cl)cn1 [Ulixertinib] (top concentration 10000 nM)	6.72	2.82	1.32	-4.38	1.92	-0.18	-0.38	1.92	-3.08	1.82	5.42	2.22	-4.38	6.12	1.72	0.12	1.22	3.62	2.82	-1.38
Cn1ncc(Cl)c1-c1cc(C(=O)N[C@H](CN)Cc2ccc(F)c(F)c2)oc1Cl [Uprosertib] (top concentration 10000 nM)	9	10.4	0.7	18.8	5.7	-0.6	1.7	3.9	-1.4	0.7	9.1	4.6	-1.4	1.1	9.3	2.9	1.9	8.5	8.3	3.4
C=CC(=O)N1CC/C(=C\c2ccc(F)c([N+](=O)[O-])c2)C(=O)/C(=C/c2ccc(F)c([N+](=O)[O-])c2)C1 [VLX1570] (top concentration 10000 nM)	0.38	1.58	-2.12	2.78	-0.52	-1.92	5.28	-2.52	1.58	0.88	3.88	-1.22	-5.32	-0.92	-5.62	4.08	-4.92	-4.72	1.58	-6.52
C[C@@H]1COC(Nc2ccc3ncnc(Nc4ccc(OCc5nccs5)c(Cl)c4)c3c2)=N1 [Varlitinib] (top concentration 10000 nM)	5.12	-0.18	0.12	-0.18	2.12	-0.18	-0.18	-0.18	-0.18	4.72	8.32	0.82	0.02	-0.18	-0.18	-0.18	3.02	0.12	5.92	4.92
CNC(=O)c1cccc(-c2ccc3c(N4CCOC[C@@H]4C)nc(N4CCOC[C@@H]4C)nc3n2)c1 [Vistusertib] (top concentration 10000 nM)	10	8.22	5.42	2.12	4.62	-1.28	9.12	5.12	0.32	11.8	19.7	5.82	2.72	2.12	3.12	3.92	3.72	5.22	24.5	5.52
